Series [1] concerns the target T1, Adenosine receptor A1 (Rattus norvegicus, UniProt P25099).
T1 sequence (P25099 whole entry): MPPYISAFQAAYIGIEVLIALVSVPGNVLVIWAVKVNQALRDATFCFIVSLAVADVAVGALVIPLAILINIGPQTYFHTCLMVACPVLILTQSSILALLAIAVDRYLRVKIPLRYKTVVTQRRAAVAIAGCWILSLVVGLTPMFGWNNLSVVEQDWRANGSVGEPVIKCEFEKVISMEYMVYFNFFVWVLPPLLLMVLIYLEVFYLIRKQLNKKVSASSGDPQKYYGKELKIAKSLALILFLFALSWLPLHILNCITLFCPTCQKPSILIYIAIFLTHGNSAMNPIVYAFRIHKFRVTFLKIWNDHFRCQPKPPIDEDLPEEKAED
Briefly: biochemical.
Description: Affinity for adenosine A1 receptor assayed in a competition assay in rat brain using [3H]-CHA as radioligand

For series [2], the target named is T2, Adenosine A2 receptor (Rattus norvegicus, UniProt P29276+P30543).
Description: Affinity for the adenosine A2 receptor was evaluated in a competition assay in rat striatum using [3H]-CGS- 21680 as radioligand
The target of series [3] is T1, Adenosine receptor A1. Briefly: Negative chronotropic activity via A1 Adenosine receptor was tested in spontaneously beating rat atria. It is filed as functional.
Series [4] concerns the target T2, Adenosine A2 receptor. The source holds these as a separate data set.
Description: Negative chronotropic activity via A2 Adenosine receptor was tested monitoring vasodilation in rat aorta
A short description of series [5]: Hydrophobicity index (k') (RP-HPLC). It is filed as ADME.
Series [6] concerns the target T2, Adenosine A2 receptor. Briefly: Vasorelaxant activity for A2 Adenosine receptor as vasodilation in rat aorta.
For series [7], the target named is T1, Adenosine receptor A1. Briefly: Negative chronotropic activity for A1 Adenosine receptor in spontaneously beating rat atria. It is filed as functional.
The species named for a further series is Oryctolagus cuniculus. Briefly: Antiaggregatory effect was evaluated on rabbit platelet aggregation induced by ADP. It is filed as functional.
Series [8] concerns the target T1, Adenosine receptor A1. Briefly: Affinity for A1 Adenosine receptor in rat brain using [3H]CHA. It is filed as tissue-based.
For series [9], the target named is T2, Adenosine A2 receptor. Briefly: Affinity for A2 Adenosine receptor in rat striatum using [3H]-CGS- 21680. It is filed as tissue-based.

The values below come from ChEMBL document CHEMBL1127534, “2-Alkynyl derivatives of adenosine-5'-N-ethyluronamide: selective A2 adenosine receptor agonists with potent inhibitory activity on platelet aggregation” (J Med Chem, 1994).

Structures are written as SMILES.

As usually defined, the Ki is a measure of affinity in units of concentration, obtained from inhibition or displacement. In general, EC50 refers to the concentration needed to bring the measured effect to its halfway point. A low value points to higher potency in that assay. As for `CCNC(=O)[C@H]1O[C@@H](n2cnc3c(N)nc(C#CC(C)O)nc32)[C@H](O)[C@@H]1O` (stereo partly specified), the figures for the inhibition constant (Ki) on Adenosine receptor A1 [1] and on Adenosine A2 receptor [2] were 0.0111 µM and 0.0076 µM, respectively. The EC50 on Adenosine receptor A1 [3] is 0.657 µM; at Adenosine A2 receptor [4] it was 0.828 µM. In addition, in [5], the “k'” value worked out at 0.23.
Regarding `CCNC(=O)[C@H]1O[C@@H](n2cnc3c(N)nc(C#CCCCO)nc32)[C@H](O)[C@@H]1O`, the Ki on Adenosine receptor A1 [1] was 0.0999 µM; on Adenosine A2 receptor [2], 0.0113 µM. Further, the EC50 was above 10 µM on Adenosine receptor A1 [3] and 0.3 µM on Adenosine A2 receptor [4]. Besides, in [5], the “k'” value is reported as 0.22.
The matching figures for `CCNC(=O)[C@H]1O[C@@H](n2cnc3c(N)nc(C#CC(O)c4ccccc4)nc32)[C@H](O)[C@@H]1O` (stereo partly specified): 0.0025 µM, 0.0009 µM, 0.11 µM, 0.123 µM and 0.82.
The matching figures for `CCNC(=O)[C@H]1O[C@@H](n2cnc3c(N)nc(C#CC(C)(O)c4ccccc4)nc32)[C@H](O)[C@@H]1O` (stereo partly specified): 0.0327 µM, 0.0017 µM, 2.43 µM, 0.456 µM and 1.32.
On to `CCNC(=O)[C@H]1O[C@@H](n2cnc3c(N)nc(C#CCCCCO)nc32)[C@H](O)[C@@H]1O`, for which the Ki is 0.0421 µM at Adenosine receptor A1 [1] and 0.0068 µM at Adenosine A2 receptor [2]. Besides, the results for the EC50 on Adenosine receptor A1 [3] and at Adenosine A2 receptor [4] were above 10 µM and 0.391 µM, respectively. Moreover, the “k'” value in [5] was 0.35.
As for `CCNC(=O)[C@H]1O[C@@H](n2cnc3c(N)nc(C#CC(OCC)OCC)nc32)[C@H](O)[C@@H]1O`, the figures for the inhibitory constant (Ki) on Adenosine receptor A1 [1] and at Adenosine A2 receptor [2] were 0.656 µM and 0.441 µM, respectively. Also, the values for the EC50 on Adenosine receptor A1 [3] and at Adenosine A2 receptor [4] were above 10 µM and 0.382 µM, respectively. The “k'” value in series [5] worked out at 1.63.
In the case of `CCNC(=O)[C@H]1O[C@@H](n2cnc3c(N)nc(C#CC4(O)CCCC4)nc32)[C@H](O)[C@@H]1O`, the EC50 at Adenosine A2 receptor [6] worked out at 0.159 µM; at Adenosine receptor A1 [7], 0.475 µM. For the same molecule, the results for the Ki on Adenosine receptor A1 [1] and on Adenosine A2 receptor [2] were 0.004 µM and 0.0006 µM, respectively. Further, in the series listed under Oryctolagus cuniculus, the Ratio was 5.3. The “k'” value in series [5] came out at 0.77.
`CCNC(=O)[C@H]1O[C@@H](n2cnc3c(N)nc(C#CCN)nc32)[C@H](O)[C@@H]1O`: the inhibition constant (Ki) came to 0.0486 µM on Adenosine receptor A1 [1] and 0.0383 µM at Adenosine A2 receptor [2]. The EC50 came to 0.73 µM at Adenosine receptor A1 [3] and 0.564 µM on Adenosine A2 receptor [4]. Also, the “k'” value in series [5] came to 0.15.
With `CCNC(=O)[C@H]1O[C@@H](n2cnc3c(N)ncnc32)[C@H](O)[C@@H]1O` [NECA], in [5], the “k'” value was determined as 0.19.
In the case of `CCCCC#Cc1nc(N)c2ncn([C@@H]3O[C@H](C(=O)NCC)[C@@H](O)[C@H]3O)c2n1`, the Ki on Adenosine receptor A1 [1] was determined as 0.13 µM; at Adenosine A2 receptor [2], 0.0022 µM. In addition, the EC50 at Adenosine receptor A1 [3] is above 10 µM; at Adenosine A2 receptor [4] it was 0.596 µM. Moreover, the “k'” value in series [5] came to 2.57.
As for `CCNC(=O)[C@H]1O[C@@H](n2cnc3c(N)nc(C#CC4(N)CCCCC4)nc32)[C@H](O)[C@@H]1O`, the EC50 at Adenosine A2 receptor [6] was 0.779 µM; at Adenosine receptor A1 [7], above 10 µM. For the same molecule, the Ki at Adenosine receptor A1 [1] was found to be 0.398 µM; at Adenosine A2 receptor [2], 0.0394 µM. Also, in the series filed under Oryctolagus cuniculus, the Ratio came to 0.6. Further, the “k'” value in series [5] was determined as 0.6.
For the molecule `CCNC(=O)[C@H]1O[C@@H](n2cnc3c(N)nc(C#CC(C)(O)CC(C)C)nc32)[C@H](O)[C@@H]1O` (stereo partly specified), the Ki on Adenosine receptor A1 [1] was 0.003 µM; on Adenosine A2 receptor [2], 0.0005 µM. Moreover, the EC50 is above 10 µM at Adenosine receptor A1 [3] and 0.338 µM on Adenosine A2 receptor [4]. For the same molecule, in [5], the “k'” value is reported as 1.84.
Regarding `CCNC(=O)[C@H]1O[C@@H](n2cnc3c(N)nc(C#CCCO)nc32)[C@H](O)[C@@H]1O`, the results for the Ki on Adenosine receptor A1 [1] and on Adenosine A2 receptor [2] were 0.0473 µM and 0.0108 µM, respectively. The EC50 at Adenosine receptor A1 [3] was above 10 µM; on Adenosine A2 receptor [4] it was 0.0594 µM. Also, the “k'” value in series [5] amounted to 0.2.
Regarding `C=C(C)C#Cc1nc(N)c2ncn([C@@H]3O[C@H](C(=O)NCC)[C@@H](O)[C@H]3O)c2n1`, the Ki on Adenosine receptor A1 [1] is 0.167 µM; at Adenosine A2 receptor [2], 0.0273 µM. The EC50 at Adenosine receptor A1 [3] is above 10 µM; on Adenosine A2 receptor [4] it was 1.2 µM. Further, the “k'” value in series [5] was found to be 1.27.
Consider `CCNC(=O)[C@H]1O[C@@H](n2cnc3c(N)nc(C#CC4CCCCC4)nc32)[C@H](O)[C@@H]1O`, for which the figures for the Ki on Adenosine receptor A1 [1] and on Adenosine A2 receptor [2] were 0.236 µM and 0.0092 µM, respectively. In addition, the EC50 at Adenosine receptor A1 [3] is above 10 µM; at Adenosine A2 receptor [4] it was 0.329 µM. Moreover, the “k'” value in [5] amounted to 4.54.
For `CCNC(=O)[C@H]1O[C@@H](n2cnc3c(N)nc(C#CCO)nc32)[C@H](O)[C@@H]1O`, in that order: 0.0141 µM, 0.0091 µM, 0.0842 µM, 0.367 µM and 0.17.
As for `OC[C@H]1O[C@@H](n2cnc3c(NC4CCCC4)nc(Cl)nc32)[C@H](O)[C@@H]1O`, in series [5], the “k'” value was 2.76.
For `C#Cc1nc(N)c2ncn([C@@H]3O[C@H](C(=O)NCC)[C@@H](O)[C@H]3O)c2n1`, the figures for the inhibition constant (Ki) at Adenosine receptor A1 [1] and on Adenosine A2 receptor [2] were 0.0354 µM and 0.0578 µM, respectively. Besides, the figures for the EC50 at Adenosine receptor A1 [3] and at Adenosine A2 receptor [4] were 0.167 µM and 0.44 µM, respectively. In series [5], the “k'” value came out at 0.25.
For the molecule `CCNC(=O)[C@H]1O[C@@H](n2cnc3c(N)nc(C#CC(O)CC)nc32)[C@H](O)[C@@H]1O` (stereo partly specified), the Ki on Adenosine receptor A1 [8] was 0.0204 µM; on Adenosine A2 receptor [9] it was 0.0124 µM. The EC50 turned out to be 0.153 µM on Adenosine receptor A1 [3] and 0.0693 µM on Adenosine A2 receptor [4]. Moreover, the “k'” value in [5] turned out to be 0.42.
For `CCNC(=O)[C@H]1O[C@@H](n2cnc3c(N)nc(C#CCN(C)C)nc32)[C@H](O)[C@@H]1O`, the inhibition constant Ki was 0.0279 µM at Adenosine receptor A1 [1] and 0.0023 µM at Adenosine A2 receptor [2]. The values for the EC50 on Adenosine receptor A1 [3] and on Adenosine A2 receptor [4] were 0.332 µM and 0.14 µM, respectively. In addition, the “k'” value in series [5] is recorded as 0.37.
Consider `CCNC(=O)[C@H]1O[C@@H](n2cnc3c(N)nc(C#CCCCC#N)nc32)[C@H](O)[C@@H]1O`, for which the Ki on Adenosine receptor A1 [1] was 0.184 µM; at Adenosine A2 receptor [2], 0.0047 µM. Also, the EC50 at Adenosine receptor A1 [3] was 2.37 µM; at Adenosine A2 receptor [4], 0.111 µM. The “k'” value in series [5] was determined as 0.32.
Turning to `CCNC(=O)[C@H]1O[C@@H](n2cnc3c(N)nc(C#CCCCCl)nc32)[C@H](O)[C@@H]1O`, the results for the inhibitory constant (Ki) at Adenosine receptor A1 [1] and on Adenosine A2 receptor [2] were 0.0379 µM and 0.001 µM, respectively. Further, the figures for the EC50 on Adenosine receptor A1 [3] and at Adenosine A2 receptor [4] were 2.52 µM and 0.715 µM, respectively. In [5], the “k'” value is 1.35.
Turning to `CCNC(=O)[C@H]1O[C@@H](n2cnc3c(N)nc(C#CCC(C)O)nc32)[C@H](O)[C@@H]1O` (stereo partly specified), the values for the Ki on Adenosine receptor A1 [1] and on Adenosine A2 receptor [2] were 0.0696 µM and 0.0564 µM, respectively. For the same molecule, the EC50 on Adenosine receptor A1 [3] amounted to 6.05 µM; at Adenosine A2 receptor [4] it was 1.65 µM. Moreover, the “k'” value in series [5] worked out at 0.29.
Take `CCNC(=O)[C@H]1O[C@@H](n2cnc3c(N)nc(C#CCCOC4CCCCO4)nc32)[C@H](O)[C@@H]1O` (stereo partly specified): the EC50 at Adenosine A2 receptor [6] is 0.115 µM; at Adenosine receptor A1 [7], above 10 µM. In addition, the Ki on Adenosine receptor A1 [1] came out at 0.267 µM; on Adenosine A2 receptor [2], 0.005 µM. In addition, the Ratio in the series filed under Oryctolagus cuniculus was 0.3. Besides, in series [5], the “k'” value turned out to be 1.32.
Take `CCNC(=O)[C@H]1O[C@@H](n2cnc3c(N)nc(C#CC4=CCCCC4)nc32)[C@H](O)[C@@H]1O`: the EC50 at Adenosine A2 receptor [6] is 3.03 µM; at Adenosine receptor A1 [7], above 10 µM. The values for the Ki at Adenosine receptor A1 [1] and on Adenosine A2 receptor [2] were 3.3 µM and 0.0613 µM, respectively. Further, the Ratio in the series filed under Oryctolagus cuniculus is recorded as 0.03. For the same molecule, the “k'” value in [5] is given as 3.9.
